In ChEMBL document CHEMBL1129285, “Conformationally constrained analogues of diacylglycerol. 10. Ultrapotent protein kinase C ligands based on a racemic 5-disubstituted tetrahydro-2-furanone template” (J Med Chem, 1996):

Biological target: Protein kinase C alpha type (Homo sapiens, UniProt P17252)
Assay: Displacement of [H-20]phorbol12,13-dibutyrate (PDBU) from Protein kinase C alpha

`CCCCCCCCCCCCC/C=C1/CC(CO)(COC(C)=O)OC1=O` (configuration not stated) was tested, and the Ki was 34 nM.
`CCCCCCCCCCCCC/C=C1\CC(CO)(COC(C)=O)OC1=O` (configuration not stated) was tested, and the Ki was 78 nM.
